Laboratory results taken from patent US10526323B2, “Indazole and azaindazole substituted compounds as mGluR4 allosteric potentiators, compositions, and methods of treating neurological dysfunction” (Vanderbilt University, priority 2015, dated 2020).

Target: mGluR4 (UniProt Q14833)
Assay: mGluR4 potentiation assay: increase in response to an EC20 concentration of agonist (species not given)
Format: cell-based
Conditions: EC50 for potentiation of mGluR4; table does not state human or rat
Description: The disclosed compounds and compositions can be evaluated for their ability to act as a potentiator of metabotropic glutamate receptor activity, in particular mGluR4 activity, by any suitable known methodology known in the art. For example, Chinese Hamster Ovary (CHO) cells transfected with human mGluR4 or […] co-transfected with rat mGluR4 and the G-protein regulated Inwardly Rectifying Potassium channel (GIRK) were plated in clear bottom assay plates for assay in a Hamamatsu FDSS Fluorometric Plate Reader. The cells were loaded with either a Ca2+-sensitive fluorescent dye or the thallium responsive dye and the plates were washed and placed into a suitable kinetic plate reader. For human mGluR4 assays, a fluorescence baseline was established for 3-5 seconds, the disclosed compounds were then added to the cells, and the response in cells was measured. Approximately two and a half minutes later, a concentration of mGluR4 orthosteric agonist (e.g. glutamate or L-AP4) eliciting approximately 20% (EC20) of the maximal agonist response was added to the cells, and the response was measured. Two minutes later, a concentration of mGluR4 agonist (e.g. glutamate or L-AP4) eliciting 80% (EC80) of the maximal agonist response was added to the cells, and the response was measured. For rat mGluR4/GIRK experiments, a baseline was established for approximately five seconds, disclosed compounds were added, and either an EC20 or EC80 concentration of agonist was added approximately two and one half minutes later. Potentiation of the agonist response of mGluR4 by the disclosed compounds was observed as an increase in response to the EC20 concentration of agonist in the presence of compound compared to the response to agonist in the absence of compound. Similarly, antagonism of the agonist response of mGluR4 by the disclosed compounds was observed as a decrease in response to the EC80 concentration of agonist in the presence of compound compared to the response to agonist in the absence of compound.
The above described assay operated in two modes. In the first mode, a range of concentrations of the disclosed compounds are added to cells, followed by a single fixed concentration of agonist. If the compound acts as a potentiator, an EC50 value for potentiation and a maximum extent of potentiation by the compound at this concentration of agonist is determined by non-linear curve fitting. If the compound acts as a noncompetitive antagonist, an IC50 value is determined by non-linear curve fitting. In the second mode, several fixed concentrations of the disclosed compounds are added to various wells on a plate, followed by a range in concentrations of agonist for each concentration of disclosed compound. The EC50 values for the agonist at each concentration of compound are determined by non-linear curve fitting. A decrease in the EC50 value of the agonist with increasing concentrations of the sample compound (a leftward shift of the agonist concentration-response curve) is an indication of the degree of mGluR4 potentiation at a given concentration of the sample compound. A decrease in the maximal response of the agonist with increasing concentrations of the sample compounds, with or without a rightward shift in agonist potency, is an indication of the degree of noncompetitive antagonism at mGluR4. The second mode also indicates whether the sample compounds also affect the maximum response to mGluR4 to agonists.
These compounds are positive allosteric modulators (potentiators) of human and rat mGluR4 and were selective for mGluR4 compared to the other seven subtypes of metabotropic glutamate receptors.

| Structure (SMILES) | EC50 [nM] |
| --- | --- |
| CC[C@H](C)Cn1nc(C)c2cc(Nc3n[nH]c4cccnc34)cnc21 [Example 155, 3-methyl-1-[(2S)-2-methylbutyl]-N-(1H-pyrazolo[4,3-b]pyridin-3-yl)pyrazolo[3,4-b]pyridin-5-amine] | 160 |
| Cc1nn(CC(F)(F)F)c2ccc(Nc3n[nH]c4cccnc34)cc12 [Example 116, N-(3-methyl-1-(2,2,2-trifluoroethyl)-1H-indazol-5-yl)-1H-pyrazolo[4,3-b]pyridin-3-amine] | 96 |
| Cn1nc(C(=O)N2CCC(S(C)(=O)=O)C2)c2ccc(Nc3n[nH]c4cccnc34)cc21 (stereo not shown) [Example 170, [1-methyl-6-(1H-pyrazolo[4,3-b]pyridin-3-ylamino)indazol-3-yl]-(3-methylsulfonylpyrrolidin-1-yl)methanone] | 2340 |
| FC(F)(F)Cn1nc(Cl)c2cc(Nc3n[nH]c4cccnc34)ccc21 [Example 275, N-(3-chloro-1-(2,2,2-trifluoroethyl)-1H-indazol-5-yl)-1H-pyrazolo[4,3-b]pyridin-3-amine] | 2720 |
| CCC(C)n1nc(Cl)c2cc(Nc3n[nH]c4cccnc34)ccc21 (stereo not shown) [Example 286, N-(1-(sec-butyl)-3-chloro-1H-indazol-5-yl)-1H-pyrazolo[4,3-b]pyridin-3-amine] | > 10000 |
| Cc1nn(CC2CC(C3CC3)=NO2)c2ccc(Nc3n[nH]c4cccnc34)cc12 (stereo not shown) [Example 100, N-(1-((3-cyclopropyl-4,5-dihydroisoxazol-5-yl)methyl)-3-methyl-1H-indazol-5-yl)-1H-pyrazolo[4,3-b]pyridin-3-amine] | 258 |
| Cc1cc(Cn2nc(C)c3cc(Nc4n[nH]c5nccnc45)ccc32)no1 [Example 69, N-(3-methyl-1-((5-methylisoxazol-3-yl)methyl)-1H-indazol-5-yl)-1H-pyrazolo[3,4-b]pyrazin-3-amine] | 145 |
| COC(=O)CCCNc1nn(C)c2cc(Nc3n[nH]c4cccnc34)ccc12 [Example 38, methyl 4-((6-((1H-pyrazolo[4,3-b]pyridin-3-yl)amino)-1-methyl-1H-indazol-3-yl)amino)butanoate] | 263 |
| Cc1n[nH]c2ccc(Nc3n[nH]c4cccnc34)cc12 [Example 79] | 813 |
| [2H]C([2H])([2H])n1nc(C2CC2)c2ccc(Nc3n[nH]c4cccnc34)cc21 [Example 23, N-(3-cyclopropyl-1-(methyl-d3)-1H-indazol-6-yl)-1H-pyrazolo[4,3-b]pyridin-3-amine] | 36 |
| Cc1nn(CC2CC2)c2ccc(Nc3n[nH]c4cccnc34)cc12 [Example 111, N-(1-(cyclopropylmethyl)-3-methyl-1H-indazol-5-yl)-1H-pyrazolo[4,3-b]pyridin-3-amine] | 36 |
| Cc1cc(Cn2nc(Cl)c3cc(Nc4n[nH]c5cccnc45)ccc32)no1 [Example 279, N-(3-chloro-1-((5-methylisoxazol-3-yl)methyl)-1H-indazol-5-yl)-1H-pyrazolo[4,3-b]pyridin-3-amine] | 290 |
| Cc1cc(Cn2nc3ccc(Nc4n[nH]c5cccnc45)cc3c2C)no1 [Example 70, N-(3-methyl-2-((5-methylisoxazol-3-yl)methyl)-2H-indazol-5-yl)-1H-pyrazolo[4,3-b]pyridin-3-amine] | 870 |
| [2H]C([2H])(C)n1nc(C)c2cc(Nc3n[nH]c4cccnc34)ccc21 [Example 124, N-(1-(ethyl-1,1-d2)-3-methyl-1H-indazol-5-yl)-1H-pyrazolo[4,3-b]pyridin-3-amine] | 109 |

Now from value to compound:

| EC50 [nM] | Structure (SMILES) |
| --- | --- |
| 29 | Cn1ncc2c(Cl)cc(Nc3n[nH]c4cccnc34)cc21 [Example 2, N-(4-chloro-1-methyl-1H-indazol-6-yl)-1H-pyrazolo[4,3-b]pyridin-3-amine] |
| 136 | Cc1cc(Cn2ncc3cc(Nc4n[nH]c5cccnc45)cc(Cl)c32)no1 [Example 82, N-(7-chloro-1-((5-methylisoxazol-3-yl)methyl)-1H-indazol-5-yl)-1H-pyrazolo[4,3-b]pyridin-3-amine] |
| 51 | Cn1ncc2c(Cl)cc(Nc3n[nH]c4ncccc34)cc21 [Example 6, N-(4-chloro-1-methyl-1H-indazol-6-yl)-1H-pyrazolo[3,4-b]pyridin-3-amine] |
| 72 | c1cnc2c(Nc3ccc4[nH]ncc4c3)n[nH]c2c1 [Example 88, N-(1H-indazol-5-yl)-1H-pyrazolo[4,3-b]pyridin-3-amine] |
| 718 | COc1cc(Nc2n[nH]c3cccnc23)cc2c1cnn2C [Example 52, N-(4-methoxy-1-methyl-1H-indazol-6-yl)-1H-pyrazolo[4,3-b]pyridin-3-amine] |
| > 10000 | Cc1cc(Cn2ncc3ncc(Nc4n[nH]c5cccnc45)cc32)no1 [Example 146, N-(1-((5-methylisoxazol-3-yl)methyl)-1H-pyrazolo[4,3-b]pyridin-6-yl)-1H-pyrazolo[4,3-b]pyridin-3-amine] |
| > 10000 | Cc1nn(C(C)C)c2ncc(Nc3n[nH]c4ncccc34)cc12 [Example 267, N-(1-isopropyl-3-methyl-1H-pyrazolo[3,4-b]pyridin-5-yl)-1H-pyrazolo[3,4-b]pyridin-3-amine] |
| 801 | Cn1nc(C(=O)N2CCS(=O)(=O)CC2)c2ccc(Nc3n[nH]c4cccnc34)cc21 [Example 165, (1,1-dioxo-1,4-thiazinan-4-yl)-[1-methyl-6-(1H-pyrazolo[4,3-b]pyridin-3-ylamino)indazol-3-yl]methanone] |
| 315 | Cn1cc2cc(Nc3n[nH]c4cccnc34)ccc2n1 [Example 56, N-(2-methyl-2H-indazol-5-yl)-1H-pyrazolo[4,3-b]pyridin-3-amine] |
| > 10000 | [2H]C([2H])([2H])n1nc(Cl)c2cc(Nc3n[nH]c4cccnc34)ccc21 [Example 282, N-(3-chloro-1-(methyl-d3)-1H-indazol-5-yl)-1H-pyrazolo[4,3-b]pyridin-3-amine] |
| 64 | Cn1ncc2c(Cl)cc(Nc3n[nH]c4ccccc34)cc21 [Example 9, N-(4-chloro-1-methyl-1H-indazol-6-yl)-1H-indazol-3-amine] |
| > 10000 | Cn1ncc2cc(Nc3n[nH]c4c3CCCC4)cc(Cl)c21 [Example 67, 7-chloro-1-methyl-N-(4,5,6,7-tetrahydro-1H-indazol-3-yl)-1H-indazol-5-amine] |
| 76 | Clc1cc(Nc2n[nH]c3cccnc23)cc2cnn(CC3CCC3)c12 [Example 65, N-(7-chloro-1-(cyclobutylmethyl)-1H-indazol-5-yl)-1H-pyrazolo[4,3-b]pyridin-3-amine] |
| 992 | Cn1nc(N2CCOCC2)c2ccc(Nc3n[nH]c4cccnc34)cc21 [Example 35, N-(1-methyl-3-morpholino-1H-indazol-6-yl)-1H-pyrazolo[4,3-b]pyridin-3-amine] |
| 238 | Cn1nc(OCCN2CCOCC2)c2ccc(Nc3n[nH]c4cccnc34)cc21 [Example 217, N-[1-methyl-3-(2-morpholinoethoxy)indazol-6-yl]-1H-pyrazolo[4,3-b]pyridin-3-amine] |
| > 10000 | CC(C)n1nc(C2CC2)c2ccc(Nc3n[nH]c4nccnc34)cc21 [Example 17, N-(3-cyclopropyl-1-isopropyl-1H-indazol-6-yl)-1H-pyrazolo[3,4-b]pyrazin-3-amine] |
| 125 | Cc1cc(Cn2ncc3cc(Nc4n[nH]c5cccnc45)ccc32)no1 [Example 103, N-(1-((5-methylisoxazol-3-yl)methyl)-1H-indazol-5-yl)-1H-pyrazolo[4,3-b]pyridin-3-amine] |
| 4220 | Cn1nc(C2CC2)c2ccc(Nc3n[nH]c4cc(F)ccc34)cc21 [Example 11, N-(3-cyclopropyl-1-methyl-1H-indazol-6-yl)-6-fluoro-1H-indazol-3-amine] |
| 129 | Cn1nc(C2(C)CC2)c2ccc(Nc3n[nH]c4ncccc34)cc21 [Example 30, N-(1-methyl-3-(1-methylcyclopropyl)-1H-indazol-6-yl)-1H-pyrazolo[3,4-b]pyridin-3-amine] |
| 200 | Cc1nn(C2CCC2)c2ncc(Nc3n[nH]c4cccnc34)cc12 [Example 158, 1-cyclobutyl-3-methyl-N-(1H-pyrazolo[4,3-b]pyridin-3-yl)pyrazolo[3,4-b]pyridin-5-amine] |
